From publication PMC10048662, “Whole-Cell Biocatalytic Production of Acetoin with an aldC-Overexpressing Lactococcus lactis Using Soybean as Substrate” (Foods, 2023)

Target: T1, ALDC (α-acetolactate decarboxylase, aldC) (Lactiplantibacillus plantarum, UniProt F9UPY7)
T1 construct: gene aldB; expressed in Lactococcus lactis NZ9000 from pNZ8048, crude lysate supernatant; ALDC described as dimer
Assay: acetoin formation, creatine/α-naphthol colour reaction at […] nm
Assay type: biochemical
Settings: crude lysate supernatant of nisin-induced cells; 30 °C, 20 min; uninduced cells as comparison

T1 sequence (F9UPY7 entry or part of it): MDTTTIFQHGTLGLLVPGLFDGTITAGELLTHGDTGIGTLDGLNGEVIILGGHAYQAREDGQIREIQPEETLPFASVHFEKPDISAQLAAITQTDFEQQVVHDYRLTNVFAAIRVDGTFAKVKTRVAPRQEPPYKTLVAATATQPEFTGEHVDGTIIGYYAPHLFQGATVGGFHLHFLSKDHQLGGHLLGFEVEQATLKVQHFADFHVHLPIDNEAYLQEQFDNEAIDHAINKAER

SMILES: CC(=O)C(C)(O)C(=O)O (racemic) [α-acetolactate]
- acetoin formation, creatine/α-naphthol colour reaction at 522 nm: the expressed ALDC can efficiently convert α-acetolactate to acetoin
